From patent US6114310A, “Efflux pump inhibitors” (priority 1998, dated 2000)

System: Pseudomonas aeruginosa PAM1001
Assay: microbe, parasite or virus in culture
Assay type: cell-based
Procedure: The activity of efflux pump inhibitors (EPI) in combination with fluoroquinolones, such as levofloxacin, is assessed by the checkerboard assay (Antimicrobial Combinations. In Antibiotics in Laboratory Medicine, Ed. Victor Lorian, M. D., Fourth edition, 1996, pp 333-338) using broth microdilution method performed as recommended by the NCCLS (National Committee for Clinical Laboratory Standards (NCCLS). 1997. Methods for Dilution of Antimicrobial Susceptibility Tests for Bacteria That Grow Aerobically--Fourth Edition; Approved Standard. NCCLS Document M7-A4, Vol 17 No.2). The test organism used is Pseudomonas aeruginosa PAM1001.
In this assay, multiple dilutions of two drugs, namely the EPI and levofloxacin, are being tested, alone and in combination, at concentrations equal to, above and below their respective minimal inhibitory concentrations (MICs).
Stock solutions are further diluted, according to the needs of a particular assay, in Mueller Hinton Broth (MHB). Stock solution can be stored at -80° C. Quinolones are solubilized according to the instructions of the manufacturers, at a concentration of 1 mg/ml. They are then further diluted in MHB. Stock solution can be stored at -80° C.
The checkerboard assay is performed in microtiter plates. Levofloxacin is diluted in the x axis, each column containing a single concentration of levofloxacin. The EPI is diluted in the y axis, each row containing an equal concentration of EPI. The result of these manipulations is that each well of the microtiter plate contains a unique combination of concentrations of the two agents. Each EPI are tested independently.
The assay is performed in MHB with a final bacterial inoculum of 5×10^5 CFU/ml (from an early-log phase culture). Microtiter plates are incubated during 20 h at 35° C. and are read using a microtiterplate reader (Molecular Devices) at 650 nm as well as visual observation using a microtiterplate reading mirror.

[1] = Table 1, EPI Conc. μg/ml (number not given; column between 10 and 40 μg/ml)
[2] = Table 2, EPI Conc. μg/ml (number not given; column between 10 and 40 μg/ml)
[3] = Table 3, EPI Conc. μg/ml (number not given; column between 10 and 40 μg/ml)
[4] = Table 4, EPI Conc. μg/ml (number not given; column between 10 and 40 μg/ml)

Molecule	Levofloxacin MIC Against P. aeruginosa PAM1001 in Presence of Efflux Pump Inhibitor (EPI), Minimum Inhibitory Concentration (Table 1, EPI Conc. 0 μg/ml)	Levofloxacin MIC Against P. aeruginosa PAM1001 in Presence of Efflux Pump Inhibitor (EPI), Minimum Inhibitory Concentration (Table 1, EPI Conc. 0.625 μg/ml)	Levofloxacin MIC Against P. aeruginosa PAM1001 in Presence of Efflux Pump Inhibitor (EPI), Minimum Inhibitory Concentration (Table 1, EPI Conc. 5 μg/ml)	Levofloxacin MIC Against P. aeruginosa PAM1001 in Presence of Efflux Pump Inhibitor (EPI), Minimum Inhibitory Concentration (Table 1, EPI Conc. 10 μg/ml)	Levofloxacin MIC Against P. aeruginosa PAM1001 in Presence of Efflux Pump Inhibitor (EPI), Minimum Inhibitory Concentration (Table 1, EPI Conc. 40 μg/ml)	Levofloxacin MIC Against P. aeruginosa PAM1001 in Presence of Efflux Pump Inhibitor (EPI), Minimum Inhibitory Concentration [1]	Levofloxacin MIC Against P. aeruginosa PAM1001 in Presence of Efflux Pump Inhibitor (EPI), Minimum Inhibitory Concentration (Table 2, EPI Conc. 0 μg/ml)	Levofloxacin MIC Against P. aeruginosa PAM1001 in Presence of Efflux Pump Inhibitor (EPI), Minimum Inhibitory Concentration (Table 2, EPI Conc. 0.625 μg/ml)	Levofloxacin MIC Against P. aeruginosa PAM1001 in Presence of Efflux Pump Inhibitor (EPI), Minimum Inhibitory Concentration (Table 2, EPI Conc. 5 μg/ml)	Levofloxacin MIC Against P. aeruginosa PAM1001 in Presence of Efflux Pump Inhibitor (EPI), Minimum Inhibitory Concentration (Table 2, EPI Conc. 40 μg/ml)	Levofloxacin MIC Against P. aeruginosa PAM1001 in Presence of Efflux Pump Inhibitor (EPI), Minimum Inhibitory Concentration (Table 2, EPI Conc. […])	Levofloxacin MIC Against P. aeruginosa PAM1001 in Presence of Efflux Pump Inhibitor (EPI), Minimum Inhibitory Concentration [2]	Levofloxacin MIC Against P. aeruginosa PAM1001 in Presence of Efflux Pump Inhibitor (EPI), Minimum Inhibitory Concentration (Table 3, EPI Conc. 0 μg/ml)	Levofloxacin MIC Against P. aeruginosa PAM1001 in Presence of Efflux Pump Inhibitor (EPI), Minimum Inhibitory Concentration (Table 3, EPI Conc. 0.625 μg/ml)	Levofloxacin MIC Against P. aeruginosa PAM1001 in Presence of Efflux Pump Inhibitor (EPI), Minimum Inhibitory Concentration (Table 3, EPI Conc. 5 μg/ml)	Levofloxacin MIC Against P. aeruginosa PAM1001 in Presence of Efflux Pump Inhibitor (EPI), Minimum Inhibitory Concentration (Table 3, EPI Conc. 10 μg/ml)	Levofloxacin MIC Against P. aeruginosa PAM1001 in Presence of Efflux Pump Inhibitor (EPI), Minimum Inhibitory Concentration [3]	Levofloxacin MIC Against P. aeruginosa PAM1001 in Presence of Efflux Pump Inhibitor (EPI), Minimum Inhibitory Concentration (Table 4, EPI Conc. 0 μg/ml)	Levofloxacin MIC Against P. aeruginosa PAM1001 in Presence of Efflux Pump Inhibitor (EPI), Minimum Inhibitory Concentration (Table 4, EPI Conc. 0.625 μg/ml)	Levofloxacin MIC Against P. aeruginosa PAM1001 in Presence of Efflux Pump Inhibitor (EPI), Minimum Inhibitory Concentration (Table 4, EPI Conc. 5 μg/ml)	other results
NCCCC(N)C(=O)N(CCCc1ccccc1)CCC(=O)Nc1ccc2ccccc2c1 (stereo not drawn) [Compound 21 (Table 3), Omithyl-β-(N-phenylpropyl)alanine 2-naphthylamide]	4 µg/mL	4 µg/mL	1 µg/mL	1 µg/mL	0.25 µg/mL	0.50 µg/mL	4 µg/mL	4 µg/mL	2 µg/mL	0.03 µg/mL	4 µg/mL	0.03 µg/mL	4 µg/mL	4 µg/mL	0.03 µg/mL	0.03 µg/mL	0.06 µg/mL	4 µg/mL	4 µg/mL	0.50 µg/mL	Levofloxacin MIC Against P. aeruginosa PAM1001 in Presence of Efflux Pump Inhibitor (EPI), Minimum Inhibitory Concentration (Table 3, EPI Conc. […]): 2 µg/mL; Levofloxacin MIC Against P. aeruginosa PAM1001 in Presence of Efflux Pump Inhibitor (EPI), Minimum Inhibitory Concentration (Table 4, EPI Conc. 40 μg/ml): 0.015 µg/mL; Levofloxacin MIC Against P. aeruginosa PAM1001 in Presence of Efflux Pump Inhibitor (EPI), Minimum Inhibitory Concentration (Table 4, EPI Conc. […]): 4 µg/mL; Levofloxacin MIC Against P. aeruginosa PAM1001 in Presence of Efflux Pump Inhibitor (EPI), Minimum Inhibitory Concentration [4]: 0.015 µg/mL
D-Ornithyl-β-N-(Cyclopropylmethyl)alanine Quinoline-2-amide Trifluoroacetate [Example 28]	4 µg/mL	4 µg/mL	2 µg/mL	1 µg/mL	0.125 µg/mL	0.06 µg/mL	4 µg/mL	4 µg/mL	1 µg/mL	0.125 µg/mL	4 µg/mL	0.25 µg/mL	4 µg/mL	4 µg/mL	0.015 µg/mL	0.008 µg/mL	0.015 µg/mL	4 µg/mL	4 µg/mL	2 µg/mL	Levofloxacin MIC Against P. aeruginosa PAM1001 in Presence of Efflux Pump Inhibitor (EPI), Minimum Inhibitory Concentration (Table 1, EPI Conc. […]): 4 µg/mL; Levofloxacin MIC Against P. aeruginosa PAM1001 in Presence of Efflux Pump Inhibitor (EPI), Minimum Inhibitory Concentration (Table 2, EPI Conc. 10 μg/ml): 0.50 µg/mL; Levofloxacin MIC Against P. aeruginosa PAM1001 in Presence of Efflux Pump Inhibitor (EPI), Minimum Inhibitory Concentration (Table 3, EPI Conc. 40 μg/ml): 0.015 µg/mL; Levofloxacin MIC Against P. aeruginosa PAM1001 in Presence of Efflux Pump Inhibitor (EPI), Minimum Inhibitory Concentration (Table 4, EPI Conc. 10 μg/ml): 0.25 µg/mL; Levofloxacin MIC Against P. aeruginosa PAM1001 in Presence of Efflux Pump Inhibitor (EPI), Minimum Inhibitory Concentration (Table 4, EPI Conc. 40 μg/ml): 0.125 µg/mL; Levofloxacin MIC Against P. aeruginosa PAM1001 in Presence of Efflux Pump Inhibitor (EPI), Minimum Inhibitory Concentration [4]: 0.125 µg/mL
